Laboratory results as given in patent EP4737449A1 (Changchun Genescience Pharmaceutical Co., Ltd., priority 2023, dated 2025).
pIC50: −log10 of the molar value.

Molecular target: T1, p53-Y220C mutant protein (Homo sapiens, UniProt P04637, Y220C)
T1 construct: The recombinant Y220C p53 DBD protein with his-tag
Assay: In vitro DNA binding activity assay (TR-FRET)
Assay type: biochemical
Conditions: concentration required to increase the binding activity of protein to DNA by 50%
Outline: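 His-tagged Y220C p53 DBD was equilibrated with compound 60 min at room temperature, then biotin-DNA, anti-6His-Eu and streptavidin-d2 were added and incubated overnight in the dark. TR-FRET 665/615 nm ratio, background-corrected, was expressed as % activity versus vehicle; SC150 is the concentration raising DNA binding by 50%.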

Structure (SMILES) | SC150
CCn1cc(C(=O)NCC#Cc2nn3c(N[C@@H]4CCN(C)C[C@@H]4F)cccc3c2CC(F)(F)F)c(N)n1 [Compound 329, 3-amino-1-ethyl-N-(3-(7-{[(3S,4R)-3-fluoro-1-methylpiperidin-4-yl]amino}-3-(2,2,2-trifluoroethyl)pyrazolo[1,5-a]pyridin-2-yl)prop-2-yn-1-yl]-1H-pyrazole-4-carboxamide] | 9 nM
CN1CC[C@@H](Nc2cccc3c(CC(F)(F)F)c(C#CCNC(=O)c4cccc(C(C)(C)O)c4)nn23)[C@@H](F)C1 [Compound 334, N-[3-(7-{[(3S,4R)-3-fluoro-1-methylpiperidin-4-yl]amino}-3-(2,2,2-trifluoroethyl)pyrazolo[1,5-a]pyridin-2-yl)prop-2-yn-1-yl)-3-(2-hydroxyprop-2-yl)benzamide] | 33 nM
COc1cncc(C(=O)NCC#Cc2nn3c(N[C@@H]4CCN(C)C[C@@H]4F)cccc3c2CC(F)(F)F)c1 [Compound 335, N-[3-(7-{[(3S,4R)-3-fluoro-1-methylpiperidin-4-yl]amino}-3-(2,2,2-trifluoroethyl)pyrazolo[1,5-a]pyridin-2-yl)prop-2-yn-1-yl]-5-methoxynicotinamide] | 41 nM
CCc1cc(C(=O)NCC#Cc2nn3c(N[C@@H]4CCN(C)C[C@@H]4F)cccc3c2CC(F)(F)F)cs1 [Compound 336, 5-ethyl-N-[3-(7-{[(3S,4R)-3-fluoro-1-methylpiperidin-4-yl]amino}-3-(2,2,2-trifluoroethyl)pyrazolo[1,5-a]pyridin-2-yl)prop-2-yn-1-yl]thiophene-3-carboxamide] | 68 nM
CN1CC[C@@H](Nc2cccc3c(CC(F)(F)F)c(C#CCNC(=O)c4cccc(F)c4)nn23)[C@@H](F)C1 [Compound 339, 3-fluoro-N-[3-(7-{[(3S,4R)-3-fluoro-1-methylpiperidin-4-yl]amino}-3-(2,2,2-trifluoroethyl)pyrazolo[1,5-a]pyridin-2-yl)prop-2-yn-1-yl]benzamide] | 92 nM
CCn1ncc(C(=O)NCC#Cc2nn3c(N[C@@H]4CCN(C)C[C@@H]4F)cccc3c2CC(F)(F)F)c1Cl [Compound 343] | 25 nM
CCn1cc(C(=O)NCC#Cc2nn3c(N[C@@H]4CCN(C)C[C@@H]4F)cccc3c2CC(F)(F)F)c(Cl)n1 [Compound 344] | 56 nM
CN1CC[C@@H](Nc2cccc3c(CC(F)(F)F)c(C#CCNC(=O)c4cnn(C(C)(C)C5CC5)c4)nn23)[C@@H](F)C1 [Compound 346, 1-(2-cyclopropylprop-2-yl)-N-[3-(7-{[(3S,4R)-3-fluoro-1-methylpiperidin-4-yl]amino}-3-(2,2,2-trifluoroethyl)pyrazolo[1,5-a]pyridin-2-yl)prop-2-yn-1-yl]-1H-pyrazole-4-carboxamide] | 18 nM
CCc1c(C#CCNC(=O)c2cnn(C(C)(C)C)c2N)nn2c(N[C@@H]3CCN(C)C[C@@H]3F)cccc12 [Compound 348, 5-amino-1-tert-butyl-N-[3-(3-ethyl-7-{[(3S,4R)-3-fluoro-1-methylpiperidin-4-yl]amino}-pyrazolo[1,5-a]pyridin-2-yl)prop-2-yn-1-yl]-1H-pyrazole-4-carboxamide] | 28 nM
CN1CC[C@@H](Nc2cccc3c(CC(F)(F)F)c(C#CCNC(=O)c4cn(CC5CCCC5)nc4N)nn23)[C@@H](F)C1 [Compound 349] | 12 nM
CN1CC[C@@H](Nc2cccc3c(CC(F)(F)F)c(C#CCNC(=O)c4cn(C5CC5)nc4N)nn23)[C@@H](F)C1 [Compound 350, 3-amino-N-[3-(7-{[(3S,4R)-3-fluoro-1-methylpiperidin-4-yl]amino}-3-(2,2,2-trifluoroethyl)pyrazolo[1,5-a]pyridin-2-yl)prop-2-yn-1-yl]-1-(cyclopropyl)-1H-pyrazole-4-carboxamide] | 13 nM
CN1CC[C@@H](Nc2cccc3c(CC(F)(F)F)c(C#CCNC(=O)c4cn(CC(C)(C)C)nc4N)nn23)[C@@H](F)C1 [Compound 352] | 13 nM
CN1CC[C@@H](Nc2cccc3c(CC(F)(F)F)c(C#CCNC(=O)c4cn(C(C)(C)C)nc4O)nn23)[C@@H](F)C1 [Compound 356, 1-(tert-butyl)-N-[3-(7-{[(3S,4R)-3-fluoro-1-methylpiperidin-4-yl]amino}-3-(2,2,2-trifluoroethyl)pyrazolo[1,5-a]pyridin-2-yl)prop-2-yn-1-yl]-3-hydroxy-1H-pyrazole-4-carboxamide] | 87 nM
Cc1cc(N[C@@H]2CCN(C)C[C@@H]2F)n2nc(C#CCNC(=O)c3cnn(C(C)(C)C)c3N)c(CC(F)(F)F)c2c1 [Compound 360, 5-amino-1-tert-butyl-N-[3-(7-{[(3S,4R)-3-fluoro-1-methylpiperidin-4-yl]amino}-5-methyl-3-(2,2,2-trifluoroethyl)pyrazolo[1,5-a]pyridin-2-yl)prop-2-yn-1-yl]-1H-pyrazole-4-carboxamide] | 160 nM
CC(C)(C)n1ncc(C(=O)NCC#Cc2nn3c(NC4CCOCC4)cccc3c2CC(F)(F)F)c1N [Compound 361, 5-amino-1-tert-butyl-N-(3-(7-[(tetrahydro-2H-pyran-4-yl)amino]-3-(2,2,2-trifluoroethyl)pyrazolo[1,5-a]pyridin-2-yl)prop-2-yn-1-yl)-1H-pyrazole-4-carboxamide] | 49 nM
CC(C)c1c(C#CCNC(=O)c2cnn(C(C)(C)C)c2N)nn2c(N[C@@H]3CCN(C)C[C@@H]3F)cccc12 [Compound 362, 5-amino-1-tert-butyl-N-(3-(7-{[(3S,4R)-3-fluoro-1-methylpiperidin-4-yl]amino}-3-(prop-2-yl)pyrazolo[1,5-a]pyridin-2-yl)prop-2-yn-1-yl)-1H-pyrazole-4-carboxamide] | 98 nM
CN1CCC(Nc2cccc3c(CC(F)(F)F)c(C#CCNC(=O)c4cnn(C(C)(C)C)c4N)nn23)C1 (stereo not drawn) [Compound 366, 5-amino-1-tert-butyl-N-(3-(7-[(1-methylpyrrolidin-3-yl)amino]-3-(2,2,2-trifluoroethyl)pyrazolo[1,5-a]pyridin-2-yl)prop-2-yn-1-yl)-1H-pyrazole-4-carboxamide] | 30 nM
CN1CCC2(CC1)CC(Nc1cccc3c(CC(F)(F)F)c(C#CCNC(=O)c4cnn(C(C)(C)C)c4N)nn13)C2 [Compound 367] | 27 nM
CN1CC2CCC(C1)C2Nc1cccc2c(CC(F)(F)F)c(C#CCNC(=O)c3cnn(C(C)(C)C)c3N)nn12 (stereo not drawn) [Compound 368, 5-amino-1-(tert-butyl)-N-(3-(7-((3-methyl-3-azabicyclo[3.2.1]octan-8-yl)amino)-3-(2,2,2-trifluoroethyl)pyrazolo[1,5-a]pyridin-2-yl)prop-2-yn-1-yl)-1H-pyrazole-4-carboxamide] | 57 nM
CN1CCC(Nc2cccc3c(CC(F)(F)F)c(C#CCNC(=O)c4cnn(C(C)(C)C)c4N)nn23)CC1 [Compound 370, 5-amino-1-tert-butyl-N-(3-(7-[(1-methylpiperidin-4-yl)amino]-3-(2,2,2-trifluoroethyl)pyrazolo[1,5-a]pyridin-2-yl)prop-2-yn-1-yl)-1H-pyrazole-4-carboxamide] | 9 nM
COCC(O)CN1CCC(Nc2cccc3c(CC(F)(F)F)c(C#CCNC(=O)c4cnn(C(C)(C)C)c4N)nn23)CC1 (stereo not drawn) [Compound 371, 5-amino-1-tert-butyl-N-[3-(7-{[1-(2-hydroxy-3-methoxypropy)piperidin-4-yl]amino}-3-(2,2,2-trifluoroethyl)pyrazolo[1,5-a]pyridin-2-yl)prop-2-yn-1-yl]-1H-pyrazole-4-carboxamide] | 12 nM
CC(C)(C)n1ncc(C(=O)NCC#Cc2nn3c(N[C@@H]4CCN(C5CC5)C[C@@H]4F)cccc3c2CC(F)(F)F)c1N [Compound 372, 5-amino-1-tert-butyl-N-(3-(7-{[(3S,4R)-1-cyclopropyl-3-fluoropiperidin-4-yl]amino}-3-(2,2,2-trifluoroethyl)pyrazolo[1,5-a]pyridin-2-yl)prop-2-yn-1-yl)-1H-pyrazole-4-carboxamide] | 18 nM

Test system: NUGC-3 cells
Assay: NUGC-3 cell proliferation assay (CTG, 7 days)
Assay type: cell-based, human
Conditions: Homo sapiens, NUGC-3, 168 h, NUGC-3 cell proliferation, 7 days, CTG; read-out: IC50
Procedure: The cells were cultured in strict accordance with ATCC requirements.
Cell culture medium: 1640 culture medium, 10% serum, 1% penicillin + streptomycin.
Culture conditions: 37°C, 95% air, 5% carbon dioxide.
Compounds (20 mM) were subjected to gradient dilution in DMSO: 10 gradients, 3-fold dilution, duplicate wells.
Positive and negative controls (100% dimethyl sulfoxide) were prepared.
The compounds that were gradient diluted with DMSO and positive and negative controls (1st and 2nd step), each 75 nL, were transferred to 384-well cell culture plates by Echo550.
The cells were washed twice with PBS, digested with trypsin, and centrifuged for cell counting.
The experiment can only be carried out when the cell viability is above 90%.
The cells were plated into 384-well cell culture plates, with 200 (NUGC-3) cells and 30 µL of culture medium per well.
The 384-well microplate was placed in a cell culture incubator for 7 days.
30 µL of CTG detection reagent was added to the 384-well microplate.
The 384-well microplate was incubated for 30 min at 37°C, 5% carbon dioxide in the dark.
The reading was performed by a multi-functional microplate reader Envision.
% Inhibition is calculated as follows: % Inhibition = 100−(Signalcmpd−SignalAve_BL)/(SignalAve_VC−SignalAve_BL)*100 [formula] • Signalcmpd: Average signal of the compound in the cell plate • Signalave_vc: Average signal of the negative control in the cell plate • Signalave_BL: Average signal of the blank wells in the cell plate
IC50 was calculated by fitting % inhibition and compound concentration logarithmically to a nonlinear regression (dose response - variable slope) using Graphpad 8.0. Table 2 IC50 of selected compounds in NUGC-3 cell proliferation assay

Structure (SMILES) | pIC50
CN1CC[C@@H](Nc2cccc3c(CC(F)(F)F)c(C#CCNC(=O)c4ccccc4)nn23)[C@@H](F)C1 [Compound 069, N-[3-(7-{[(3S,4R)-3-fluoro-1-methylpiperidin-4-yl]amino}-3-(2,2,2-trifluoroethyl)pyrazolo[1,5-a]pyridin-2-yl)prop-2-yn-1-yl]benzamide] | 5.54
COc1ccc(C(=O)NCC#Cc2nn3c(N[C@@H]4CCN(C)C[C@@H]4F)cccc3c2CC(F)(F)F)cc1 [Compound 070, N-[3-(7-{[(3S,4R)-3-fluoro-1-methylpiperidin-4-yl]amino}-3-(2,2,2-trifluoroethyl)pyrazolo[1,5-a]pyridin-2-yl)prop-2-yn-1-yl]-4-methoxybenzamide] | 5.48
